Measured values reported in patent US12649733B2, “3,6-diamino-pyridazin-3-yl derivatives, pharmaceutical compositions containing them and their uses as pro-apoptotic agents” (LES LABORATOIRES SERVIER, priority 2019, dated 2026).

Assays:
H146 cells = test: H146 cell viability, MTT assay; format: cell-based; conditions: Homo sapiens, NCI-H146, 48 h, 48 h exposure
Summary of the method: (§1)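 Viability read by MTT reduction (OD 540 nm after overnight SDS/HCl lysis) after 48 h compound treatment of cells in RPMI 1640/10% FBS. Triplicates at nine concentrations, 3.16-fold apart; four-parameter curve fitting yields IC50.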

Bcl-xL protein = target: T1, Bcl-xL protein (Homo sapiens, UniProt Q07817, N197C); test: Fluorescence quenching assay (PUMA peptide displacement); format: binding; conditions: 1 nM protein, 400 nM peptide, 2 hours at 23° C.; KI determined from IC50
T1 construct: (2-197)[N197C]; His-His (two His8 stretches joined by a Gly/Ala/Ser/Thr linker)
T1 sequence (Q07817 2-197 N197C): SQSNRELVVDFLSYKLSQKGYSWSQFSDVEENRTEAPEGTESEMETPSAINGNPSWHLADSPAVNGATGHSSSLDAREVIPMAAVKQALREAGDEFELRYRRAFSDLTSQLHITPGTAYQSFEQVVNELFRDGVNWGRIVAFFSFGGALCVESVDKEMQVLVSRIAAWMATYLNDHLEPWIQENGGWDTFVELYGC
Summary of the method: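 Compounds were tested as an 11-point series in pH 7.4 HEPES/NaCl/Tween buffer with 5% DMSO, 2 h at 23 °C. Cy5-tagged Bcl-xL(2-197, N197C) at 1 nM and quencher-tagged PUMA peptide at 400 nM were used. Competitive binders restore fluorescence (620/680 nm), and IC50 values were converted to KI.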

MOLT-4 cells = test: MOLT-4 cell viability, MTT assay; format: cell-based; conditions: Homo sapiens, MOLT-4, 48 h, 48 h exposure
Summary of the method: as §1

BCLXL [1] = target: T2, BCLXL (Homo sapiens, UniProt Q07817, V10N/V9A); test: Fluorescence polarisation assay (PUMA-based probe displacement); format: binding; further: 20 nM protein, 10 nM fluorescent probe
T2 sequence (Q07817 with tags, fused parts or gaps V9A/V10N): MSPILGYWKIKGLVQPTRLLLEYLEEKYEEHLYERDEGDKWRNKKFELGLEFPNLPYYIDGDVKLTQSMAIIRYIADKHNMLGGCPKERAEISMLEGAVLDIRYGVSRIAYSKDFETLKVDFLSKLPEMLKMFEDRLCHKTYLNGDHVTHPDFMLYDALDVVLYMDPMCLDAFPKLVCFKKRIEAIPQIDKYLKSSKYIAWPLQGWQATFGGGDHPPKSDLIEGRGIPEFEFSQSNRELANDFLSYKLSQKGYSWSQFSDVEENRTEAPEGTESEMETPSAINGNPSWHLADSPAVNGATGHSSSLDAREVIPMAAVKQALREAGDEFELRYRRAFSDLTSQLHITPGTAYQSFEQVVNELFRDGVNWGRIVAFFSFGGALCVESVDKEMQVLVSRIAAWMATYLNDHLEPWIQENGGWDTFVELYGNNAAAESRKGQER

BCLXL [2] = target: T2, BCLXL; test: AlphaLISA assay (BIM peptide displacement); format: binding; conditions: 20 pM protein, 1 nM peptide
Summary of the method: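 Competitive displacement of fluorescein-labelled BIM peptide (1 nM) from biotinylated GST-BCL-XL(2-209) (20 pM) in 10 mM HEPES, 150 mM NaCl, 0.05% Tween 20, pH 7.4, 4% DMSO; 11-point dilutions. Overnight at 23° C with acceptor beads, then donor beads 2 h; Alpha signal at 615 nm.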

SMILES | IC50 (H146 cells) [nM] | Ki (Bcl-xL protein) [nM] | IC50 (MOLT-4 cells) [nM] | Ki (BCLXL [1]) [nM] | IC50 (BCLXL [2]) [nM]
CNCC#Cc1ccc(OCCCc2sc(N(CCCC(O)C[N+](C)(C)C)c3cc(C)c(Nc4nc5ccccc5s4)nn3)nc2C(=O)[O-])c(F)c1 (centres unmarked) [Example 144, 2-[[6-(1,3-Benzothiazol-2-ylamino)-5-methyl-pyridazin-3-yl]-[4-hydroxy-5-(trimethylammonio)pentyl]amino]-5-[3-[2-fluoro-4-[3-(methylamino)prop-1-ynyl]phenoxy]propyl]thiazole-4-carboxylate] | 14500 | 0.0039 | 430 | < 1 | 0.014
CNCC#Cc1ccc(OCCCc2sc(N(CCCC(O)C[N+](C)(C)CCCS(=O)(=O)[O-])c3cc(C)c(Nc4nc5ccccc5s4)nn3)nc2C(=O)O)c(F)c1 (centres unmarked) [Example 146, 3-[[5-[[6-(1,3-Benzothiazol-2-ylamino)-5-methyl-pyridazin-3-yl]-[4-carboxy-5-[3-[2-fluoro-4-[3-(methylamino)prop-1-ynyl]phenoxy]propyl]thiazol-2-yl]amino]-2-hydroxy-pentyl]-dimethyl-ammonio]propane-1-sulfonate] | 971 | 0.0012 | 668 | < 1 | 0.022
C/C(=C\c1sc(N(C)c2cc(C)c(Nc3nc4ccccc4s3)nn2)nc1C(=O)O)COc1ccc(C#CCN(C)C)cc1F [Example 163, 2-({6-[(1,3-Benzothiazol-2-yl)amino]-5-methylpyridazin-3-yl}(methyl)amino)-5-[(1E)-3-{4-[3-(dimethylamino)prop-1-yn-1-yl]-2-fluorophenoxy}-2-methylprop-1-en-1-yl]-1,3-thiazole-4-carboxylic acid] | 1040 | 0.02 | 96.2 | < 1 | 0.18
Cc1cc(N(C)c2nc(C(=O)O)c(CC(O)COc3ccc(C#CCN(C)C)cc3F)s2)nnc1Nc1nc2ccccc2s1 (centres unmarked) [Example 164, 2-({6-[(1,3-benzothiazol-2-yl)amino]-5-methylpyridazin-3-yl}(methyl)amino)-5-(3-{4-[3-(dimethylamino)prop-1-yn-1-yl]-2-fluorophenoxy}-2-hydroxypropyl)-1,3-thiazole-4-carboxylic acid] | 34.6 | 0.0019 | 12.9 | < 1 | 0.0071
Cc1cc(N(CCCCCNCCN2CCOCC2)c2nc(C(=O)O)c(CCCOc3ccc(C#CCN(C)C)cc3F)s2)nnc1Nc1nc2ccccc2s1 [Example 166, 2-[[6-(1,3-Benzothiazol-2-ylamino)-5-methyl-pyridazin-3-yl]-[5-(2-morpholinoethylamino)pentyl]amino]-5-[3-[4-[3-(dimethylamino)prop-1-ynyl]-2-fluoro-phenoxy]propyl]thiazole-4-carboxylic acid] | 142 | 0.0026 | 172 | < 1 | 0.0092
Cc1cc(N(CCCCCNCCN2CCN(C)CC2)c2nc(C(=O)O)c(CCCOc3ccc(C#CCN(C)C)cc3F)s2)nnc1Nc1nc2ccccc2s1 [Example 167, 2-[[6-(1,3-Benzothiazol-2-ylamino)-5-methyl-pyridazin-3-yl]-[5-[2-(4-methylpiperazin-1-yl)ethylamino]pentyl]amino]-5-[3-[4-[3-(dimethylamino)prop-1-ynyl]-2-fluoro-phenoxy]propyl]thiazole-4-carboxylic acid] | 432 | 0.0029 | 400 | < 1 | 0.013
CCN(CC)CCNCC(O)CCCN(c1cc(C)c(Nc2nc3ccccc3s2)nn1)c1nc(C(=O)O)c(CCCOc2ccc(C#CCN(C)C)cc2F)s1 (centres unmarked) [Example 170, 2-[[6-(1,3-Benzothiazol-2-ylamino)-5-methyl-pyridazin-3-yl]-[5-[2-(diethylamino)ethylamino]-4-hydroxy-pentyl]amino]-5-[3-[4-[3-(dimethylamino)prop-1-ynyl]-2-fluoro-phenoxy]propyl]thiazole-4-carboxylic acid] | 156 | 0.005 | 154 | < 1 | 0.014

Further lines, results first:

IC50 (H146 cells) [nM] | Ki (Bcl-xL protein) [nM] | IC50 (MOLT-4 cells) [nM] | Ki (BCLXL [1]) [nM] | IC50 (BCLXL [2]) [nM] | SMILES
1.91 | 0.001 | 0.783 | < 1 | 0.0053 | Cc1cc(N(CCCCO)c2nc(C(=O)O)c(CCCOc3ccc(C#CCN(C)C)cc3F)s2)nnc1Nc1nc2ccccc2s1 [Example 134, 2-[[6-(1,3-Benzothiazol-2-ylamino)-5-methyl-pyridazin-3-yl]-(4-hydroxybutyl)amino]-5-[3-[4-[3-(dimethylamino)prop-1-ynyl]-2-fluoro-phenoxy]propyl]thiazole-4-carboxylic acid]
16.8 | 0.0017 | 136 | < 1 | 0.013 | CNCC(O)CCCN(c1cc(C)c(Nc2nc3ccccc3s2)nn1)c1nc(C(=O)O)c(CCCOc2ccc(C#CCN(C)C)cc2F)s1 (centres unmarked) [Example 150, 2-[[6-(1,3-Benzothiazol-2-ylamino)-5-methyl-pyridazin-3-yl]-[4-hydroxy-5-(methylamino)pentyl]amino]-5-[3-[4-[3-(dimethylamino)prop-1-ynyl]-2-fluoro-phenoxy]propyl]thiazole-4-carboxylic acid]
211 | 0.0059 | 430 | < 1 | 0.019 | Cc1cc(N(CCCCCN(C)C2CCNCC2)c2nc(C(=O)O)c(CCCOc3ccc(C#CCN(C)C)cc3F)s2)nnc1Nc1nc2ccccc2s1 [Example 165, 2-[[6-(1,3-Benzothiazol-2-ylamino)-5-methyl-pyridazin-3-yl]-[5-[methyl(4-piperidyl)amino]pentyl]amino]-5-[3-[4-[3-(dimethylamino)prop-1-ynyl]-2-fluoro-phenoxy]propyl]thiazole-4-carboxylic acid]
73.1 | 0.0044 | 106 | < 1 | 0.0099 | CNCCN(C)CC(O)CCCN(c1cc(C)c(Nc2nc3ccccc3s2)nn1)c1nc(C(=O)O)c(CCCOc2ccc(C#CCN(C)C)cc2F)s1 (centres unmarked) [Example 169, 2-[[6-(1,3-Benzothiazol-2-ylamino)-5-methyl-pyridazin-3-yl]-[4-hydroxy-5-[methyl-[2-(methylamino)ethyl]amino]pentyl]amino]-5-[3-[4-[3-(dimethylamino)prop-1-ynyl]-2-fluoro-phenoxy]propyl]thiazole-4-carboxylic acid]
110 | 0.0035 | 411 | < 1 | 0.013 | Cc1cc(N(CCCC(O)CN2CCC(N)CC2)c2nc(C(=O)O)c(CCCOc3ccc(C#CCN(C)C)cc3F)s2)nnc1Nc1nc2ccccc2s1 (centres unmarked) [Example 171, 2-[[5-(4-Amino-1-piperidyl)-4-hydroxy-pentyl]-[6-(1,3-benzothiazol-2-ylamino)-5-methyl-pyridazin-3-yl]amino]-5-[3-[4-[3-(dimethylamino)prop-1-ynyl]-2-fluoro-phenoxy]propyl]thiazole-4-carboxylic acid]
40.2 | 0.0026 | 160 | < 1 | 0.0078 | Cc1cc(N(CCCC(O)CN2CCNCC2)c2nc(C(=O)O)c(CCCOc3ccc(C#CCN(C)C)cc3F)s2)nnc1Nc1nc2ccccc2s1 (centres unmarked) [Example 172, 2-[[6-(1,3-Benzothiazol-2-ylamino)-5-methyl-pyridazin-3-yl]-(4-hydroxy-5-piperazin-1-yl-pentyl)amino]-5-[3-[4-[3-(dimethylamino)prop-1-ynyl]-2-fluoro-phenoxy]propyl]thiazole-4-carboxylic acid]
